In patent US10927096B2, “Ester substituted ion channel blockers and methods for use” (Nocion Therapeutics, Inc., priority 2019, dated 2021):
Values belong to the compound of their own block, whether it stands above or below them.

Tests used:
NaV1.7 [1] = target: T1, NaV1.7 (Homo sapiens, UniProt Q15858); assay: Whole cell patch clamp, external block of NaV1.7 current; type: cell-based; settings: % inhibition, compound in external solution, manual whole cell patch clamp, read-out: Nav1.7 Extracellular Inhibition; for inhibition at 3 µM: test concentration 3 μM; for inhibition at 1 µM: test concentration 1 μM; for inhibition at 100 µM: test concentration 100 μM; for inhibition at 10 µM: test concentration 10 μM; for inhibition at 30 µM: test concentration 30 μM
T1 construct: expressed in transfected cells; host or cells: HEK293, tetracycline-inducible
Description: (§1) NaV1.7 was expressed upon induction with tetracycline. Cells were cultured in DMEM containing 10% dialyzed Fetal Bovine Serum (VWR, Radnor, Pa.), 1% Glutamax (VWR, Radnor, Pa.), 1% Penicillin-Streptomycin (VWR, Radnor, Pa.), 100 mg/L Hygromycin (Thermo Fisher Scientific, Waltham, Mass. and 5 mg/L Blasticidin (Alfa Aesar, Haverhill, Mass.). Cells were grown and maintained at 37° C. in a humidified environment containing 10% C02 in air. Cells were detached from the culture flask for passage and harvested using 0.05% Trypsin-EDTA (Thermo Fisher Scientific, Waltham, Mass.). To induce NaV1.7, cells were induced with tetracycline (0.1-1 μg/mL, IBI Scientific, Peosta, Iowa) the day before recording and plated onto 24-well plates. Cells were washed with DPBS (VWR, Radnor, Pa.), trypsinized and then triturated five times in 10 mL of growth media to break apart cell aggregates. For one 24-well plate, 2 mL of cell suspension was mixed with 23 mL of fresh growth media and 0.1-1 μg/mL tetracycline added. 1 ml of mixed media with cells was then added to each well of a 24-well plate, with a 12 mm coverslip already placed in the bottom of the well. Cells were then incubated in 37° C. and 10% CO2 overnight.
(§2) The intracellular solution contained the following (in mM) CsCl 135, NaCl 10, EGTA 10, HEPES 10, MgCl2 2, adjusted to pH 7.2 with CsOH. The external solution was a normal Ringer solution containing (in mM) NaCl 155, HEPES 10, glucose 10, KCl 3.5, CaCl2 1.5, MgCl2 1 adjusted to pH 7.4 with NaOH. CsCl is from Alfa Aesar, Haverhill, Mass. All other chemicals are from Sigma-Aldrich, St. Louis, Mo. In order to test the degree of internal block by test compounds the compounds were dissolved in internal solution at the indicated test concentration. […] In order to test the degree of external block by test compounds the compounds were dissolved in external solution at the indicated test concentration.
(§3) 18-24 hours after cells were induced with tetracycline, coverslips were placed into a chamber filled with Normal Ringer solution at room temperature and the chamber placed on a microscope. Pipettes were pulled from borosilicate glass on a P97 puller (Sutter Instrument, Novato, Calif.) and polished with a MF-830 Microforge (Narishige International USA, Inc, Amityville, N.Y.) to have a resistance of 1.5-2.5 MΩ when filled with CsCl internal solution at room temperature. Healthy cells (those that are round and translucent with no visible blemishes) were chosen for seal formation. A seal was formed between the pipette and the cell, and a brief pulse of suction was used to “break in” and establish the whole-cell configuration. The membrane potential was held at −100 mV before the voltage protocol began. Only cells with series resistance between 1.5-5 MΩ were retained for analysis. The voltage protocol was as follows: Cells were held at −100 mV for 12 ms followed by a hyperpolarizing step to −105 mV for 12 ms to monitor the leak. Cells were then stepped back to −100 mV for 40 ms. Cells were then depolarized to −20 mV for 10 ms and then returned to −100 mV for 26 ms (The FIGURE).
Once the recording was started, the voltage protocol was run at 30 second intervals for 5 minutes to get a stable baseline. This is followed by 5 Hz stimulation of the same voltage protocol run until the end of experiment. […] The test compound is added for 5 minutes before washing out with normal Ringer's solution. Currents were recorded using PatchMaster software with Heka EPC10 (HEKA Electronics, Lambrecht, Germany). Only cells with inward current amplitudes at −20 mV between 400 pA and 4 nA were accepted. In addition, cells having leak currents greater than 10% of their current amplitudes were discarded.
(§4) The data was plotted using the Patchmaster software (HEKA Electronics, Lambrecht, Germany) and analyzed by plotting the minimum current during the voltage step to −20 mV (peak inward current) as a function of time. […]

NaV1.7 [2] = target: T1, NaV1.7; assay: Whole cell patch clamp, internal block of NaV1.7 current; type: cell-based; settings: % inhibition at 1 μM test concentration, compound in internal solution, manual whole cell patch clamp
Description: as §1, §2, §3
Once the recording was started, the voltage protocol was run at 30 second intervals for 5 minutes to get a stable baseline. This was followed by four 30-second periods of 5 Hz stimulation of the same voltage protocol separated by 1 minute of rest which was then followed by 0.33 Hz stimulation after the last train. Currents were recorded using PatchMaster software with Heka EPC10 (HEKA Electronics, Lambrecht, Germany). Only cells with inward current amplitudes at −20 mV between 400 pA and 4 nA were accepted. In addition, cells having leak currents greater than 10% of their current amplitudes were discarded.
as §4

[3] = PAMPA membrane permeability assay; type: physicochemical; settings: pH 7.4 buffer, GIT lipid, 4 hours incubation
Description: The PAMPA assay (pION, Inc., Woburn Mass.) was used to determine the ability of compounds of the invention to cross an artificial lipid membrane by passive diffusion. Test compounds were dissolved in DMSO (10 mM) and diluted 200-fold in buffer (pION Inc., pH 7.4) to provide 50 uM stock solutions. Buffer (150 μL) was added to a UV blank plate and stock solutions (150 μL) were transferred to a UV reference plate. The blank and reference spectrum were read using a spectrophotometer. Stock solutions (200 μL) were added to the donor plate of the PAMPA sandwich plate and an accept plate painted with GIT lipid (pION Inc, 5 μL) was placed on top. Buffer (200 μL) was added to the acceptor plate and the PAMPA sandwich plate was incubated for 4 hours. Aliquots (150 μL) from the acceptor plate were added to a UV plate and read as acceptor spectrum. Aliquots (150 μL) of the donor solutions were added to a UV analysis plate and read as donor spectrum. The permeability coefficient of test compounds was calculated using PAMPA Explorer™ software (version 3.5.0.4) based on the AUC of the reference plate, the donor plate, and the acceptor plate.
The PAMPA permeability results (10^−6 cm/s) of representative compounds are reported as “+” (<0.1 10^−6 cm/s), “++” (0.1-2.0 10^−6 cm/s), “+++” (2.0-10.010^−6 cm/s) or “++++” (>10.0 10^−6 cm/s).

T1 sequence (Q15858 whole entry): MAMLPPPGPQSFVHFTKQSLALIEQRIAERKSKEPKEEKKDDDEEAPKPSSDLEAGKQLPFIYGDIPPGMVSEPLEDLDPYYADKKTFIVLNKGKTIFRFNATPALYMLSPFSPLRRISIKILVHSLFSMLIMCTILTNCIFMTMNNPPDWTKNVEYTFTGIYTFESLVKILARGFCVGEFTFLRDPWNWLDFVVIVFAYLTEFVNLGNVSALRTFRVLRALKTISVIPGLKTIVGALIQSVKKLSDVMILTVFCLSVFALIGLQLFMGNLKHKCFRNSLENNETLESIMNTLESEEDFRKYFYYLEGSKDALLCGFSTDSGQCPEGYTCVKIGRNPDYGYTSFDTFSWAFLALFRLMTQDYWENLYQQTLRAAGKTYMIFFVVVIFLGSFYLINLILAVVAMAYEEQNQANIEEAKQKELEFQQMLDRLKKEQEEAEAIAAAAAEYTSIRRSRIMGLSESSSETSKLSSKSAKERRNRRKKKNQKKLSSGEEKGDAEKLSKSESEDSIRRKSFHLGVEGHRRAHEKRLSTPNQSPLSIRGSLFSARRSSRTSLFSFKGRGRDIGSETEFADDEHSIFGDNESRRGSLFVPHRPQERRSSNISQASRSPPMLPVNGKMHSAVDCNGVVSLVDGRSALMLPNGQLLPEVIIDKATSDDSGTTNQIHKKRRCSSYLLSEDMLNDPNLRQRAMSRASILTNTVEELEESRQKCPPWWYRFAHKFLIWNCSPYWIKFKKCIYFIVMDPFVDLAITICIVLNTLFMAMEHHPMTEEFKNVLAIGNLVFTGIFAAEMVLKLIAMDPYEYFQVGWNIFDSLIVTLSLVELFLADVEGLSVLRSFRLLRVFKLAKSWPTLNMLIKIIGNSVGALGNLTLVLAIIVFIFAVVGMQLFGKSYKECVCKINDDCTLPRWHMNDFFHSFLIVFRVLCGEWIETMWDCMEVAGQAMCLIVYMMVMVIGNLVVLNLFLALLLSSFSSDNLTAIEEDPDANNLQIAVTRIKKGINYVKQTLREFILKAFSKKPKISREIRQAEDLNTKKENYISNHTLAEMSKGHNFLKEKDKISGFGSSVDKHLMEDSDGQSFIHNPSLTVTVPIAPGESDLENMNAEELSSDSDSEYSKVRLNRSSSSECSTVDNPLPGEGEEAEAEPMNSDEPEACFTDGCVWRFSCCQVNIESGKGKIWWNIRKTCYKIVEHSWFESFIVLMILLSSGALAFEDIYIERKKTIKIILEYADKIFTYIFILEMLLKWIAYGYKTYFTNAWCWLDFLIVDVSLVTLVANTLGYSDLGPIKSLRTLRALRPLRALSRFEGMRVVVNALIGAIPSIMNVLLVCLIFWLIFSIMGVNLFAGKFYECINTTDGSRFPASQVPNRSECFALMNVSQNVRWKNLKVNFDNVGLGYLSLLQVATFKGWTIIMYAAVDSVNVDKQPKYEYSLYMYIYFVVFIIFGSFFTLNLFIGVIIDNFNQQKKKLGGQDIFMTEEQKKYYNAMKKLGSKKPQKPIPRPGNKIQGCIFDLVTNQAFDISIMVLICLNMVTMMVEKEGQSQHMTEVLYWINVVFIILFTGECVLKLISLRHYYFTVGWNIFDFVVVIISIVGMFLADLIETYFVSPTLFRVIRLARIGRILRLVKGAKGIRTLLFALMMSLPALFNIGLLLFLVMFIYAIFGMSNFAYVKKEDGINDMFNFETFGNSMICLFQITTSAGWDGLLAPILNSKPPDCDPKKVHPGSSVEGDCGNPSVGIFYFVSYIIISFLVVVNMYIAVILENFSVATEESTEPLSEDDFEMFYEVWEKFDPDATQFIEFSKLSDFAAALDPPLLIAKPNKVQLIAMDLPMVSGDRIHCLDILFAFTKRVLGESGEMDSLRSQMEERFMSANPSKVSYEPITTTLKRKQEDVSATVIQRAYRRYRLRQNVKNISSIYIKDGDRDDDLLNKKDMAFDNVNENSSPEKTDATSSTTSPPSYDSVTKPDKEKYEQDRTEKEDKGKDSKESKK

inhibition at 3 µM (NaV1.7 [1]): < 40%
Compound: COC(=O)c1cccc(C)c1NC(=O)C[N+]1(Cc2ccccc2)CCCCCC1 [Compound 1A, 1-benzyl-1-(2-((2-(methoxycarbonyl)-6-methylphenyl)amino)-2-oxoethyl)azepan-1-ium Bromide]

inhibition at 1 µM (NaV1.7 [1]): < 40%
Compound: CCOC(=O)c1cccc(C)c1NC(=O)C[N+]1(Cc2ccccc2)CCCCCC1 [Compound 2A]

inhibition at 100 µM (NaV1.7 [1]): 40 to 70%
Compound: COC(=O)c1cccc(C)c1NC(=O)C[N+]1(Cc2ccccc2)CCCCC1 [Compound 3A]

inhibition at 3 µM (NaV1.7 [1]): < 40%
Compound: CCOC(=O)c1cccc(C)c1NC(=O)C[N+]1(Cc2ccccc2)CCCCC1 [Compound 4A]

inhibition at 10 µM (NaV1.7 [1]): < 40%
Compound: CCOC(=O)c1cccc(C)c1NC(=O)C[N+]1(Cc2ccccc2)CCCC1 [Compound 9A]

inhibition at 1 µM (NaV1.7 [1]): 40 to 70%
Compound: CCOC(=O)c1cccc(C)c1NC(=O)C[N+]1(Cc2ccccc2)CCCCCCC1 [Compound 10A]

inhibition at 30 µM (NaV1.7 [1]): 40 to 70%
Compound: CCOC(=O)C1CCC[N+](CC(=O)Nc2c(C)cccc2C(=O)OC)(Cc2ccccc2)C1 (stereo not shown) [Compound 16A]

NaV1.7 Intracellular Inhibition (NaV1.7 [2]): + (<30%)
PAMPA (10^−6 cm/s) [3]: + (<0.1 10^−6 cm/s)
Compound: CCNC(=O)C1CCC[N+](CC)(CC(=O)Nc2c(C)cccc2C(=O)OC)C1.O=C[O-] (stereo not shown) [Compound 49]

inhibition at 10 µM (NaV1.7 [1]): < 40%
Compound: CNC(=O)C[N+]1(CC(=O)Nc2c(C)cccc2C(=O)OC)CCCC(c2ccccc2)C1 (stereo not shown) [Compound 59A, 1-(2-((2-(methoxycarbonyl)-6-methylphenyl)amino)-2-oxoethyl)-1-(2-(methylamino)-2-oxoethyl)-3-phenylpiperidin-1-ium Bromide]

inhibition at 100 µM (NaV1.7 [1]): 40 to 70%
Compound: COC(=O)c1cccc(C)c1NC(=O)C[N+]1(CC(N)=O)CCCC(c2ccccc2)C1 (stereo not shown) [Compound 61A]

inhibition at 10 µM (NaV1.7 [1]): 40 to 70%
Compound: CC[N+]1(CC(=O)Nc2c(C)cccc2C(=O)OC)CCCC(c2ccccc2)C1 (stereo not shown) [Compound 65A]

inhibition at 30 µM (NaV1.7 [1]): 40 to 70%
Compound: COC(=O)c1cccc(C)c1NC(=O)C[n+]1cccc(-c2ccccc2)c1 [Compound 66A, 1-(2-((2-(methoxycarbonyl)-6-methylphenyl)amino)-2-oxoethyl)-3-phenylpyridin-1-ium Bromide]

inhibition at 10 µM (NaV1.7 [1]): < 40%
Compound: CCOC(=O)c1cccc(C)c1NC(=O)C[n+]1cccc(-c2ccccc2)c1 [Compound 67A]

NaV1.7 Intracellular Inhibition (NaV1.7 [2]): ++ (70-30%)
PAMPA (10^−6 cm/s) [3]: + (<0.1 10^−6 cm/s)
Compound: CCOC(=O)c1cccc(C)c1NC(=O)C[n+]1cccn1C1CCCCC1.[Br-] [Compound 70]
